Measurements reported in article PMC10526274, “Epithelial-Immune Cell Crosstalk Determines the Activation of Immune Cells In Vitro by the Human Cathelicidin LL-37 at Low Physiological Concentrations” (Biomolecules, 2023).
“And” between values parts separate entries of the source, which are not always exact repeats. Equal values may be shown once.

Test system: Caco-2 cells
Assay: Multiplex xMAP cytokine levels, Caco-2 epithelial barrier alone stimulated with LL-37
Type: cell-based, human
Details: Caco-2 alone, 1 µM LL-37, 24 h, n=2
Protocol: Caco-2 cell line (ATCC HTB-37) was cultured in a humidified CO2-incubator (5% CO2, 37 °C) in the complete DMEM/F12 (1:1) medium (Gibco, Waltham, MA, USA) containing 10% fetal bovine serum (FBS, Gibco) and 1X antibiotic–antimycotic solution (Gibco). To stabilize the cell phenotype, Caco-2 cells have been subcultivated three times before seeding on the filter supports. Then, Caco-2 cells were seeded at a density of 2 × 10^5 cells/cm^2 onto 24-well Millicell cell culture inserts (PC, 0.4-μm pore size, 0.6 cm^2 surface area, cat. #PIHP01250) (Millipore, Burlington, MA, USA), precoated with 0.2% bovine gelatin (Sigma-Aldrich, Saint Louis, MO, USA). After seeding, Caco-2 cells were grown in the same complete medium with re-feeding every 2–3 days until polarization of the monolayer occurred. The functional polarity of the monolayers was developed when transepithelial electrical resistance (TEER) between the apical and basolateral surfaces of the monolayers reached […] as measured by the electrical resistance system Millicell-ERS Voltohmmeter (Millipore, Burlington, MA, USA). Grown cell monolayers were used in transport and cytokine production experiments between the 21st and 29th days.
Primary blood monocytes, moDCs, and NKT cells were seeded in 600 µL of complete RPMI-1640 with 10% Human AB serum (Capricorn Scientific, Ebsdorfergrund, Germany) and supplemented with 1X antibiotic–antimycotic solution into the wells of 24-well plates at a density of 3–7 × 10^5 cells/well 24 h before the experiment. Then, 24 h later, the medium in each well was replaced by the same medium with 1 µM of LL-37 for the sample wells or fresh medium alone for the control wells, and the permeable inserts with the Caco-2 monolayer with TEER > 400 Ω × cm^2, containing 400 μL of the complete medium in their apical chamber, were immediately placed into the appropriate wells. Also, inserts with the Caco-2 monolayer were placed in cell-free wells of 24-well plates in the same complete RPMI-1640 medium with or without 1 µM of LL-37 as controls. Cells were kept in a CO2-incubator (5% CO2, 37 °C) for another 24 h. Then, culture medium from each well was collected, centrifuged, and frozen at −70 °C.
To quantitatively evaluate a broad spectrum of analytes secreted by human cell cultures at the protein level, multiplex xMAP technology was used. The chosen panel (cat. #HCYTA-60K-PX48, Merck, Darmstadt, Germany) included 48 different magnetic beads with primary antibodies to the following cytokines, chemokines, and growth factors: CCL11 (Eotaxin-1), Flt-3 ligand, CX3CL1 (Fractalkine), sCD40L, FGF-2, EGF, GROα, GM-CSF, G-CSF, IL-1RA, IL-1α, IL-1β, IL-2, IL-3, IL-4, IL-5, IL-6, IL-7, CXCL8 (IL-8), IL-9, IL-10, IL-12p40, IL-12p70, IL-13, IL-15, IL-17A (CTLA8), IL-17E (IL-25), IL-17F, IL-18, IL-22, IL-27, IFNγ, IFNα2, CXCL10 (IP-10), CCL2 (MCP-1), CCL7 (MCP-3), CCL22 (MDC), CXCL9 (MIG), CCL3 (MIP-1α), CCL4 (MIP-1β), CCL5 (RANTES), M-CSF, PDGF-AA, PDGF-AB/BB, TNFα, TNFβ, TGFα, and VEGF-A. The assay was performed in accordance with the manufacturer’s instructions with overnight incubation of the samples with primary antibodies, and the plate was read on a MAGPIX System (Merck) using the xPONENT 4.2 software (Merck). The acquired fluorescence data were analyzed by the MILLIPLEX Analyst v5.1 software (Merck), which realized an advanced curve-fitting algorithm. Levels of the analytes in control and experimental samples were compared with an unpaired two-sample t-test using GraphPad Prism v.8.0.1 (GraphPad Software, Inc., San Diego, CA, USA). The p-values ≤ 0.05 were considered significant.

Q: For “LL-37: the only human cathelicidin, host defense antimicrobial peptide of 37 a.a. residues, produced by solid-phase peptide synthesis”, which MIP-1b level (control 0.3) is on record?
A: Its MIP-1b level is 3.42 pg/mL.

Q: What about the IL-18 level (control 0.98) of the same substance?
A: The IL-18 level was 0.33 pg/mL.

Q: And the IL-9 level (control 1.09)?
A: Its IL-9 level is 1.7 pg/mL.

Q: What about the IL-6 level (control 1.75) of the same substance?
A: The IL-6 level was 9.84 pg/mL.

Q: And the MIP-1a level (control 2.06)?
A: The MIP-1a level was 5.65 pg/mL.

Q: And the EGF level (control 2.26)?
A: Its EGF level is <1.60↓ pg/ml.

Q: And the IP-10 level (control 4.18)?
A: Its IP-10 level is 2.9 pg/mL.

Q: What about the IL-4 level (control 4.8) of the same substance?
A: The IL-4 level was 6.56 pg/mL.

Q: What about the MCP-3 level (control 7.84) of the same substance?
A: Its MCP-3 level is 8.72 pg/mL.

Q: And the sCD40L level (control 12.72)?
A: Its sCD40L level is 23.6 pg/mL.

Q: And the TNFb level (control 12.91, p = 0.02)?
A: Its TNFb level is 18.9 pg/mL and 18.87 pg/mL.

Q: What about the GROa level (control 18.09) of the same substance?
A: Its GROa level is 27.89 pg/mL.

Q: What about the PDGF-AB/BB level (control 22.83) of the same substance?
A: The PDGF-AB/BB level was 29.35 pg/mL.

Q: What about the IL-13 level (control 25.51) of the same substance?
A: Its IL-13 level is 32.02 pg/mL.

Q: And the FGF-2 level (control 25.68)?
A: Its FGF-2 level is 16.73 pg/mL.

Q: What about the IL-22 level (control 27.2, p = 0.013) of the same substance?
A: Its IL-22 level is 39 pg/mL and 39.52 pg/mL.

Q: What about the IL-8 level (control 28.45, p = 0.16) of the same substance?
A: Its IL-8 level is 86 pg/mL and 86.32 pg/mL.

Q: What about the IL-27 level (control 41.5) of the same substance?
A: Its IL-27 level is 35.81 pg/mL.

Q: What about the MCP-1 level (control 55.94) of the same substance?
A: The MCP-1 level was 100.47 pg/mL.

Q: What about the PDGF-AA level (control 164.04) of the same substance?
A: The PDGF-AA level was 149.4 pg/mL.

Q: And the VEGFa level (control 960.31)?
A: The VEGFa level was 2088 pg/mL.

Q: What about the IL-7 level (control <0.30) of the same substance?
A: The IL-7 level was <0.30↓ pg/ml.

Q: And the MDC level (control <0.31)?
A: The MDC level was <0.31↓ pg/ml.

Q: And the IL-5 level (control <0.35)?
A: Its IL-5 level is <0.35↓ pg/ml.

Q: And the IL-2 level (control <0.36)?
A: The IL-2 level was <0.36↓ pg/ml.

Q: And the FLT-3L level (control <0.51)?
A: Its FLT-3L level is <0.51↓ pg/ml.

Q: And the IL-3 level (control <0.55)?
A: The IL-3 level was <0.55↓ pg/ml.

Q: And the RANTES level (control <0.64)?
A: Its RANTES level is <0.64↓ pg/ml.

Q: What about the TGF-a level (control <0.68) of the same substance?
A: The TGF-a level was <0.68↓ pg/ml.

Q: What about the IL-17A level (control <0.70) of the same substance?
A: The IL-17A level was <0.70↓ pg/ml.

Q: And the IFNg level (control <0.73)?
A: Its IFNg level is <0.73↓ pg/ml.

Q: And the IL-1b level (control <0.74)?
A: Its IL-1b level is <0.74↓ pg/ml.

Q: What about the GM-CSF level (control <0.76) of the same substance?
A: The GM-CSF level was <0.76↓ pg/ml.

Q: And the IL-1RA level (control <0.93)?
A: The IL-1RA level was <0.93↓ pg/ml.

Q: What about the IL-1a level (control <1.30) of the same substance?
A: Its IL-1a level is <1.30↓ pg/ml.

Q: And the IL-10 level (control <1.35)?
A: The IL-10 level was <1.35↓ pg/ml.

Q: And the IL-15 level (control <1.54)?
A: The IL-15 level was <1.54↓ pg/ml.

Q: And the “IL-12 (p70) level” value (control <1.71)?
A: Its value is <1.71↓ pg/ml.

Q: What about the G-CSF level (control <2.32) of the same substance?
A: Its G-CSF level is <2.32↓ pg/ml.

Q: And the Eotaxin level (control <2.91)?
A: Its Eotaxin level is <2.91↓ pg/ml.

Q: And the “IL-12 (p40) level” value (control <3.33)?
A: The value was <3.33↓ pg/ml.

Q: And the MIG level (control <3.38)?
A: The MIG level was <3.38↓ pg/ml.

Q: And the IFNa2 level (control <3.88)?
A: The IFNa2 level was <3.88↓ pg/ml.

Q: And the TNFa level (control <3.88)?
A: The TNFa level was <3.88↓ pg/ml.

Q: What about the IL-17F level (control <12.19) of the same substance?
A: The IL-17F level was <12.19↓ pg/ml.

Q: What about the Fractalkine level (control <18.09) of the same substance?
A: Its Fractalkine level is <18.09↓ pg/ml.

Q: What about the IL-17E/IL-25 level (control <19.43) of the same substance?
A: Its IL-17E/IL-25 level is <19.43↓ pg/ml.

Q: And the M-GSF level (control <24.21)?
A: Its M-GSF level is <24.21↓ pg/ml.
